Key:
Type in all cases: in vivo
Settings in all cases: evaluated after 13 days
[1] = test system: Amaranthus palmeri (AMAPA); assay: Post-emergence Test, Amaranthus palmeri (AMAPA); parameters: key: 5=81-100%, 4=61-80%, 3=41-60%, 2=21-40%, 1=0-20% damage
Method: (§1) Seeds of a variety of test species are sown in standard soil in pots (Setaria faberi (SETFA), Echinochloa crus-galli (ECHCG), Zea mays (ZEAMX), Ipomoea hederacea (IPOHE), Amaranthus palmeri (AMAPA), Amaranthus retoflexus (AMARE)). After 8 days cultivation under controlled conditions in a glasshouse (at 24° C./16° C., day/night; 14 hours light; 65% humidity), the plants are sprayed with an aqueous spray solution derived from the formulation of the technical active ingredient in acetone/water (50:50) solution containing 0.5% Tween 20 (polyoxyethelyene sorbitan monolaurate, CAS RN 9005-64-5). Compounds are applied at 1000 g/ha unless otherwise stated. The test plants are then grown in a glasshouse under controlled conditions in a glasshouse (at 24° C./16° C., day/night; 14 hours light; 65% humidity) and watered twice daily. After 13 days the test is evaluated for the percentage damage caused to the plant. The biological activities are shown in the following table on a five-point scale (5=81-100%; 4=61-80%; 3=41-60%; 2=21-40%; 1=0-20%; -=not tested).

[2] = test system: Ipomoea hederacea (IPOHE); assay: Post-emergence Test, Ipomoea hederacea (IPOHE); parameters: key to percentage damage caused to the plant, IPOHE (five-point scale): 5=81-100%, 4=61-80%, 3=41-60%, 2=21-40%, 1=0-20% damage
Method: as §1

[3] = test system: Amaranthus retoflexus (AMARE); assay: Post-emergence Test, Amaranthus retoflexus (AMARE); parameters: key to percentage damage caused to the plant, AMARE (five-point scale): 5=81-100%, 4=61-80%, 3=41-60%, 2=21-40%, 1=0-20% damage
Method: as §1

Setaria faberi (SETFA) = assay: Post-emergence Test, Setaria faberi (SETFA); parameters: key to percentage damage caused to the plant, SETFA (five-point scale): 5=81-100%, 4=61-80%, 3=41-60%, 2=21-40%, 1=0-20% damage
Method: as §1

Zea mays (ZEAMX) = assay: Post-emergence Test, Zea mays (ZEAMX); parameters: key to percentage damage caused to the plant, ZEAMX (five-point scale): 5=81-100%, 4=61-80%, 3=41-60%, 2=21-40%, 1=0-20% damage
Method: as §1

[4] = test system: Echinochloa crus-galli (ECHCG); assay: Post-emergence Test, Echinochloa crus-galli (ECHCG); parameters: key to percentage damage caused to the plant, ECHCG (five-point scale): 5=81-100%, 4=61-80%, 3=41-60%, 2=21-40%, 1=0-20% damage
Method: as §1

Row | SMILES | percentage damage caused to the plant, AMAPA (five-point scale) ([1]; 250 g/Ha) | percentage damage caused to the plant, AMAPA (five-point scale) ([1]; 1000 g/ha) | percentage damage caused to the plant, IPOHE (five-point scale) ([2]; 250 g/Ha) | percentage damage caused to the plant, IPOHE (five-point scale) ([2]; 1000 g/ha) | percentage damage caused to the plant, AMARE (five-point scale) ([3]; 250 g/Ha) | percentage damage caused to the plant, AMARE (five-point scale) ([3]; 1000 g/ha) | percentage damage caused to the plant, SETFA (five-point scale) (Setaria faberi (SETFA); 250 g/Ha) | percentage damage caused to the plant, SETFA (five-point scale) (Setaria faberi (SETFA); 1000 g/ha) | percentage damage caused to the plant, ZEAMX (five-point scale) (Zea mays (ZEAMX); 250 g/Ha) | percentage damage caused to the plant, ZEAMX (five-point scale) (Zea mays (ZEAMX); 1000 g/ha) | percentage damage caused to the plant, ECHCG (five-point scale) ([4]; 250 g/Ha) | percentage damage caused to the plant, ECHCG (five-point scale) ([4]; 1000 g/ha)
1 | CCOC(=O)c1c(-c2ccc(Cl)c(Cl)c2)n(CC)c(Cn2cnc([N+](=O)[O-])n2)cc1=O [Compound 43, ethyl 2-(3,4-dichlorophenyl)-1-ethyl-6-[(3-nitro-1,2,4-triazol-1-yl)methyl]-4-oxo-pyridine-3-carboxylate] | 1 (1=0-20%) | 1 (1=0-20%) | 0 | 0 | 1 (1=0-20%) | 0 | 0 | 1 (1=0-20%) | 0 | 1 (1=0-20%) | 1 (1=0-20%) | 1 (1=0-20%)
2 | CCn1c(Cn2ncc([N+](=O)[O-])c2C)cc(=O)c(C(=O)O)c1-c1ccc(Cl)c(Cl)c1 [Compound 69, 2-(3,4-dichlorophenyl)-1-ethyl-6-[(5-methyl-4-nitro-pyrazol-1-yl)methyl]-4-oxo-pyridine-3-carboxylic acid] | – | 1 (1=0-20%) | – | 1 (1=0-20%) | – | 1 (1=0-20%) | – | 3 (3=41-60%) | – | 2 (2=21-40%) | – | 1 (1=0-20%)
3 | CCn1c(Cn2ccc(C(F)(F)F)n2)cc(=O)c(C(=O)O)c1-c1ccc(N)c(Cl)c1 [Compound 133, 2-(4-amino-3-chloro-phenyl)-1-ethyl-4-oxo-6-[[3-(trifluoromethyl)pyrazol-1-yl]methyl]pyridine-3-carboxylic acid] | 1 (1=0-20%) | 1 (1=0-20%) | 0 | 1 (1=0-20%) | 1 (1=0-20%) | 1 (1=0-20%) | 1 (1=0-20%) | 0 | 0 | 0 | 0 | 0
4 | CCn1c(C(C)n2ccc(C(F)(F)F)n2)cc(=O)c(C(=O)O)c1-c1ccc(Cl)c(Cl)c1 (stereo not shown) [Compound 172, 2-(3,4-dichlorophenyl)-1-ethyl-4-oxo-6-[1-[3-(trifluoromethyl)pyrazol-1-yl]ethyl]pyridine-3-carboxylic acid] | 1 (1=0-20%) | 2 (2=21-40%) | 0 | 1 (1=0-20%) | 1 (1=0-20%) | 2 (2=21-40%) | – | 1 (1=0-20%) | 0 | 1 (1=0-20%) | 0 | –
5 | CCn1c(Cn2cnc(C#N)c2C#N)cc(=O)c(C(=O)O)c1-c1ccc(Cl)c(Cl)c1 [Compound 113, 2-(3,4-dichlorophenyl)-6-[(4,5-dicyanoimidazol-1-yl)methyl]-1-ethyl-4-oxo-pyridine-3-carboxylic acid] | – | 1 (1=0-20%) | – | 0 | – | 1 (1=0-20%) | – | 1 (1=0-20%) | – | 1 (1=0-20%) | – | 1 (1=0-20%)
6 | CCn1c(Cn2cnc(F)c2)cc(=O)c(C(=O)O)c1-c1ccc(Cl)c(Cl)c1 [Compound 77, 2-(3,4-dichlorophenyl)-1-ethyl-6-[(4-fluoroimidazol-1-yl)methyl]-4-oxo-pyridine-3-carboxylic acid] | – | 1 (1=0-20%) | – | 0 | – | 1 (1=0-20%) | – | 0 | – | 1 (1=0-20%) | – | 1 (1=0-20%)
7 | CCn1c(Cn2nc(C(F)(F)F)c3c2CCOC3)cc(=O)c(C(=O)O)c1-c1ccc(Cl)c(Cl)c1 [Compound 107, 2-(3,4-dichlorophenyl)-1-ethyl-4-oxo-6-[[3-(trifluoromethyl)-6,7-dihydro-4H-pyrano[4,3-c]pyrazol-1-yl]methyl]pyridine-3-carboxylic acid] | 0 | 1 (1=0-20%) | 0 | 2 (2=21-40%) | 0 | 1 (1=0-20%) | 0 | 1 (1=0-20%) | 0 | 0 | 2 (2=21-40%) | 1 (1=0-20%)
8 | CCc1ncnn1Cc1cc(=O)c(C(=O)O)c(-c2ccc(Cl)c(Cl)c2)n1CC [Compound 70, 2-(3,4-dichlorophenyl)-1-ethyl-6-[(5-ethyl-1,2,4-triazol-1-yl)methyl]-4-oxo-pyridine-3-carboxylic acid] | – | 1 (1=0-20%) | – | 1 (1=0-20%) | – | 1 (1=0-20%) | – | 2 (2=21-40%) | – | 0 | – | 1 (1=0-20%)
9 | CCOC(=O)c1c(-c2ccc(Cl)c(Cl)c2)n(CC)c(Cn2ccnc2)c(Br)c1=O [Compound 24, ethyl 5-bromo-2-(3,4-dichlorophenyl)-1-ethyl-6-(imidazol-1-ylmethyl)-4-oxo-pyridine-3-carboxylate] | 1 (1=0-20%) | 1 (1=0-20%) | 2 (2=21-40%) | 1 (1=0-20%) | 1 (1=0-20%) | 1 (1=0-20%) | 1 (1=0-20%) | 1 (1=0-20%) | 1 (1=0-20%) | 3 (3=41-60%) | 1 (1=0-20%) | 1 (1=0-20%)

Reference: patent US20250098679A1, “HERBICIDAL PYRIDONE DERIVATIVES” (SYNGENTA CROP PROTECTION AG, priority 2021, published 2025)
